Reference: ChEMBL document CHEMBL1201862, “PubChem BioAssay data set” (2004)
Each block holds one compound with its values, some of them ahead of it. Active and inactive are the calls of the source.

What was measured:
[1] = biological target: T1, Carboxy-terminal domain RNA polymerase II polypeptide A small phosphatase 1 (Homo sapiens, UniProt Q9GZU7); assay: CTDSP1 inhibitors, concentration-response, biochemical, absorbance readout, ultra-high-throughput screen actives (AID 540297); type: functional
T1 sequence (Q9GZU7 whole entry): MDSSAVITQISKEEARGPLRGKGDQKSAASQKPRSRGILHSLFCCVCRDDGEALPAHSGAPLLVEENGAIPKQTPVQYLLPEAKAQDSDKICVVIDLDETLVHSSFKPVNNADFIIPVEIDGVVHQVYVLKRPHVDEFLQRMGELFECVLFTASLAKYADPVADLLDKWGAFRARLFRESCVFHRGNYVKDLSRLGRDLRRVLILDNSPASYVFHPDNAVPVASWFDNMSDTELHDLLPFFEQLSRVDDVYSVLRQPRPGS

[2] = OVCAR8 cell viability loss – plate reader, dry powder samples, PAX8 project, dose response (AID 743197); type: functional, cell-based; conditions: OVCAR-8
[3] = OVCAR-3 cell viability loss – plate reader, dry powder samples, PAX8 inhibitor project, dose response (AID 743044); type: functional, cell-based
Paired box protein Pax-8 = Paired box protein Pax-8 (Homo sapiens, UniProt Q06710); assay: PAX8 transcriptional activity inhibition in RMG-I – RMG-I cells, luciferase, cherry-pick, dose response (AID 687027); type: functional, cell-based;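 note: luciferase reporter driven by Pax8 target thyroperoxidase promoter measured by SteadyGlo luminescence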
[4] = reduction of Shn3 3'UTR-driven luciferase in osteoblasts – cell-based, Clone20 osteoblasts, firefly luciferase, cherry-picked, dose response (AID 624132); type: functional;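 note: firefly luciferase luminescence from reporter carrying the Shn3 3'UTR in osteoblasts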
[5] = loss of viability in HepG2 cells – cell-based, CellTiter-Glo, cherry-picked, cytotoxicity control for Shn3 inhibitor project, dose response (AID 624134); type: functional
[6] = viability loss of HPDE-C7K cells – cell-based, fluorescence, HTS, primary screen (AID 431); type: functional; conditions: Homo sapiens
[7] = HPDE-C7 pancreatic duct cell viability loss – fluorescence, HTS (AID 430); type: functional, cell-based; conditions: Homo sapiens
Prothrombin = Prothrombin (Homo sapiens, UniProt P00734); assay: Thrombin 1536 HTS Dose Response Confirmation. [Related pubchem assays: 1046 (Thrombin 1536 HTS; hits were confirmed in this assay)]; type: functional
Cytochrome P450 2C19 = Cytochrome P450 2C19 (Homo sapiens, UniProt P33261); assay: Cytochrome panel assay with activity outcomes. Panel member name: p450-cyp2c19 Compounds with AC50 equal or less than 10 uM are considered active; type: functional; conditions: read-out: AC50
[8] = biological target: T2, Corticotropin-releasing factor receptor 2/Corticotropin-releasing factor-binding protein (Homo sapiens, UniProt P24387+Q13324); assay: activators of CRF receptor 2 with binding protein – uHTS hits, confirmation (AID 602473); type: functional; conditions: read-out: EC50_Mean
T2 sequence (Q13324 whole entry): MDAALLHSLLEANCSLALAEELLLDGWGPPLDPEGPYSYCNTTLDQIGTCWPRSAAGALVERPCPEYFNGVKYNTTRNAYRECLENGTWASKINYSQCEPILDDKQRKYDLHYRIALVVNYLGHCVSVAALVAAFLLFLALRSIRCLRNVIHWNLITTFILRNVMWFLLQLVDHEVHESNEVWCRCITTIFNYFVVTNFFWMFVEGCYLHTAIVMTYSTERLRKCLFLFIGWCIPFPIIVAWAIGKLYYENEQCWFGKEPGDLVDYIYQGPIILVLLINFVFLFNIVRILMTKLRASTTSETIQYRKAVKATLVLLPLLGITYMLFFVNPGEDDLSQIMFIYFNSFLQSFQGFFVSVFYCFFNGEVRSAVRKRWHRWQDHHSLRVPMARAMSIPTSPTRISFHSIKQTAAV
T2 sequence (P24387 whole entry): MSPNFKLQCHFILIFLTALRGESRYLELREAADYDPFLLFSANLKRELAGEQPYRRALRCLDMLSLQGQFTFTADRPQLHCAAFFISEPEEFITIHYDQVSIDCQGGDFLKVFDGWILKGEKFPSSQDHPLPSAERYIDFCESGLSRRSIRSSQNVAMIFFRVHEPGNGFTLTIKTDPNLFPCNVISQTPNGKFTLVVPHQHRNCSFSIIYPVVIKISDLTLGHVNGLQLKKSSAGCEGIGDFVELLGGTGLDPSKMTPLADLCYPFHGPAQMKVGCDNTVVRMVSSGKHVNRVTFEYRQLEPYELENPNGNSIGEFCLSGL

[9] = biological target: T2, Corticotropin-releasing factor receptor 2/Corticotropin-releasing factor-binding protein; assay: Dose Response confirmation of uHTS hits for small molecule antagonists of the CRF-binding protein and CRF-R2 receptor complex.; type: functional; conditions: read-out: IC50_Mean
[10] = growth inhibition of yeast DHODH-expressing 3D7 parasites – SYBR Green, dry powder samples, dose response (AID 1159570); type: functional, cell-based;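 note: parasite growth measured after 72 hours of compound exposure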
[11] = P. falciparum Dd2 growth inhibitors, dose response, SYBR Green, cherry-picked samples (AID 1159567); type: functional, cell-based
[12] = Dd2 malaria parasite growth inhibition potency – SYBR Green, dry powder samples, dose response (AID 1159566); type: functional, cell-based;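 note: potency for growth inhibition with lower SYBR green DNA signal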
[13] = growth inhibition of PfATP4-mutant resistant parasites – NITD609-resistant line, SYBR Green, dry powder, dose response (AID 1159571); type: functional, cell-based;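 note: parasites synchronized at ring stage by sorbitol before testing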
Cytochrome P450 2C9 = Cytochrome P450 2C9 (Homo sapiens, UniProt P11712)
Cytochrome P450 3A4 = Cytochrome P450 3A4 (Homo sapiens, UniProt P08684);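 note: CYP3A4 tested as one member of a cytochrome P450 panel screen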
Genome polyprotein = Genome polyprotein (dengue virus type 2, UniProt P29990); assay: flavivirus cap methylation enzyme inhibition – biochemical, confirmation dose response, primary screen (AID 588689); type: functional
[14] = biological target: T3, Short transient receptor potential channel 4 (Mus musculus, UniProt Q9QUQ5); assay: calcium entry via TRPC4 opening agents – cell-based, HEK293 TRPC4/mu-opioid, Fluo-4 calcium, dose response (AID 434937); type: functional
T3 sequence (Q9QUQ5 whole entry): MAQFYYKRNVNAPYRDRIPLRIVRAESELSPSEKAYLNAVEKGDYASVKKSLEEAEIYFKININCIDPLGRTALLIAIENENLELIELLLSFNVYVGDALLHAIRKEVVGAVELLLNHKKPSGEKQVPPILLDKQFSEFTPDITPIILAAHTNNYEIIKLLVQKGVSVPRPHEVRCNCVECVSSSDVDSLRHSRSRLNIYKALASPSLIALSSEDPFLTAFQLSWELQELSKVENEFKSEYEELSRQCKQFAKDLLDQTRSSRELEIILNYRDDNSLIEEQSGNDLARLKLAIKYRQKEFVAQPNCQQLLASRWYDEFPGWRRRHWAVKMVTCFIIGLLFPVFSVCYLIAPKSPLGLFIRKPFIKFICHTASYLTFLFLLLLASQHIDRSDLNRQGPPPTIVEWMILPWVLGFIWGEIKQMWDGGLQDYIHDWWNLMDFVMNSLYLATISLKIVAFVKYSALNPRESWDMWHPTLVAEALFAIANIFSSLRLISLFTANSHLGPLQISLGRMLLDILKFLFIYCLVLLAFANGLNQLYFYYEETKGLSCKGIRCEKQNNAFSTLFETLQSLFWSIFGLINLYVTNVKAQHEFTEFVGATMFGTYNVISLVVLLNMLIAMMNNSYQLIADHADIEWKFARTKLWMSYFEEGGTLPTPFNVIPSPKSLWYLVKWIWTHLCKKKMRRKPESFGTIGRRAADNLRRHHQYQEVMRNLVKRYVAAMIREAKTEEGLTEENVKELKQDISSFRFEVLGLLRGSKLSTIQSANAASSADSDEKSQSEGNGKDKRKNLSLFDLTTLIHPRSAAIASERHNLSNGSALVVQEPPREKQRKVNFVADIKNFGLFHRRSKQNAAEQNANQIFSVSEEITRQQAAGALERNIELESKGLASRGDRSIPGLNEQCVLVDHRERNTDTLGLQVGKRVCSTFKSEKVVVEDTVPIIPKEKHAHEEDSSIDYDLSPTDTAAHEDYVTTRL

[15] = biological target: T3, Short transient receptor potential channel 4; assay: block of DAMGO-driven TRPC4 calcium entry – cell-based, HEK293 TRPC4/mu-opioid, Fluo-4 calcium, dose response (AID 434942); type: functional;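 note: potency of inhibitors blocking the TRPC4 calcium response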
[16] = Trypanosoma cruzi growth suppression in host cells – NIH3T3 host cells, beta-gal luminescence, confirmation (AID 2044); type: functional, cell-based;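 note: intracellular parasites grown in NIH/3T3 mouse fibroblasts as host cells; luminescent beta-galactosidase reporter signal from transgenic T. cruzi replicating inside host cells; inhibitors lower the luminescence signal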
[17] = NIH3T3 cell viability loss – ATP luminescence, mouse fibroblasts, counter-screen, dose response (AID 2010); type: functional, cell-based;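 note: cells exposed to compound for about 90 hours before reading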

Cytochrome P450 2C9, sequence (P11712 whole entry): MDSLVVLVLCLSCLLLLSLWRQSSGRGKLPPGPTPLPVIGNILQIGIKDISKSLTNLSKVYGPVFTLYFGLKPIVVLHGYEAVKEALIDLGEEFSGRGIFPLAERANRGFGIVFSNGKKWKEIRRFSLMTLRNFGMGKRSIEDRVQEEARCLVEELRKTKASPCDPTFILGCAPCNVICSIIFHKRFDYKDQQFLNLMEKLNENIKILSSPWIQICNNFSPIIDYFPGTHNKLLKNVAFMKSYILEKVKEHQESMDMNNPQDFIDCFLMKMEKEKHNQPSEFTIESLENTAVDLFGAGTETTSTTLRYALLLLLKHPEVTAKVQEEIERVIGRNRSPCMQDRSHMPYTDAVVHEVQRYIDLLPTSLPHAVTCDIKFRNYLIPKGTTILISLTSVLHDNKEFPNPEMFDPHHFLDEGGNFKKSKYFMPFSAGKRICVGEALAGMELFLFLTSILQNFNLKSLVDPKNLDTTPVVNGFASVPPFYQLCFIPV
Cytochrome P450 2C19, sequence (P33261 whole entry): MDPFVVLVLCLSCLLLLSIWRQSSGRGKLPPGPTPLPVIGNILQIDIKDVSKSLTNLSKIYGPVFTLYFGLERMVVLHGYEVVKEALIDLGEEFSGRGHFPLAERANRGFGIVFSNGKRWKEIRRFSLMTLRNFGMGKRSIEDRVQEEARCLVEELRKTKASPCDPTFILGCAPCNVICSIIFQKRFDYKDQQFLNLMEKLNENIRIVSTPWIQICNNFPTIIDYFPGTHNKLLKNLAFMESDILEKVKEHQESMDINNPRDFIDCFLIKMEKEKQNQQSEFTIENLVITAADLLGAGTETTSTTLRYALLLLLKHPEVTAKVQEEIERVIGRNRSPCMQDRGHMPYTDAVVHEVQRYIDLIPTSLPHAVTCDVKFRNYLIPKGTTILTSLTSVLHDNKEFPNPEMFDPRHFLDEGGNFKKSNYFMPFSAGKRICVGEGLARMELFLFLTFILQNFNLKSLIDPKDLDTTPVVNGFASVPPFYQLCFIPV
Cytochrome P450 3A4, sequence (P08684 whole entry): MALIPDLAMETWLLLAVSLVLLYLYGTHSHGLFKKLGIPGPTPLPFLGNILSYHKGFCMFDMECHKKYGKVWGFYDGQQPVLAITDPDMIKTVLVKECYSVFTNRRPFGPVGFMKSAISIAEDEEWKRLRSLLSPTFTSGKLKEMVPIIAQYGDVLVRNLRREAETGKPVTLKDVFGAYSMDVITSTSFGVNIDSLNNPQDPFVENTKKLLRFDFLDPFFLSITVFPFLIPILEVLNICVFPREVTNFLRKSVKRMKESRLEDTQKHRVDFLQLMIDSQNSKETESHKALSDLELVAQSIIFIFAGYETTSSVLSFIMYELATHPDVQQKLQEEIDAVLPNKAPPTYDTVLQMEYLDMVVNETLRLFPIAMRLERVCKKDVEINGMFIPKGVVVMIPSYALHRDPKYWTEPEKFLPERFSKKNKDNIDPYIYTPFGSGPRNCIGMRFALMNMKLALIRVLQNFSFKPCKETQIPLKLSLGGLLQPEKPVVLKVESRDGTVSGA
Paired box protein Pax-8, sequence (Q06710 whole entry): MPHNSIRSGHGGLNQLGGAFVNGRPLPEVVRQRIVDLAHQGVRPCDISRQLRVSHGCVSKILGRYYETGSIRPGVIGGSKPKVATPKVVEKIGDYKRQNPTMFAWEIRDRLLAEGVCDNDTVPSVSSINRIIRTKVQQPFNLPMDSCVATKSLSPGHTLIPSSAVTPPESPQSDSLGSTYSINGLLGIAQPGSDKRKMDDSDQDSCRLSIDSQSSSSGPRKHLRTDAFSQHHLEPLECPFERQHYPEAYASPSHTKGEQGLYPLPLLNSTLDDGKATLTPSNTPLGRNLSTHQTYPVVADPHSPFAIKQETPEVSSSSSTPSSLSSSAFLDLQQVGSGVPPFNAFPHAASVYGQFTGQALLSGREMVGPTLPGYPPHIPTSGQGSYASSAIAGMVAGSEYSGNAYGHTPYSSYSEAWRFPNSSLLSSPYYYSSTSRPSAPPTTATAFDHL
Genome polyprotein, sequence (P29990 2492-3391 limits assumed): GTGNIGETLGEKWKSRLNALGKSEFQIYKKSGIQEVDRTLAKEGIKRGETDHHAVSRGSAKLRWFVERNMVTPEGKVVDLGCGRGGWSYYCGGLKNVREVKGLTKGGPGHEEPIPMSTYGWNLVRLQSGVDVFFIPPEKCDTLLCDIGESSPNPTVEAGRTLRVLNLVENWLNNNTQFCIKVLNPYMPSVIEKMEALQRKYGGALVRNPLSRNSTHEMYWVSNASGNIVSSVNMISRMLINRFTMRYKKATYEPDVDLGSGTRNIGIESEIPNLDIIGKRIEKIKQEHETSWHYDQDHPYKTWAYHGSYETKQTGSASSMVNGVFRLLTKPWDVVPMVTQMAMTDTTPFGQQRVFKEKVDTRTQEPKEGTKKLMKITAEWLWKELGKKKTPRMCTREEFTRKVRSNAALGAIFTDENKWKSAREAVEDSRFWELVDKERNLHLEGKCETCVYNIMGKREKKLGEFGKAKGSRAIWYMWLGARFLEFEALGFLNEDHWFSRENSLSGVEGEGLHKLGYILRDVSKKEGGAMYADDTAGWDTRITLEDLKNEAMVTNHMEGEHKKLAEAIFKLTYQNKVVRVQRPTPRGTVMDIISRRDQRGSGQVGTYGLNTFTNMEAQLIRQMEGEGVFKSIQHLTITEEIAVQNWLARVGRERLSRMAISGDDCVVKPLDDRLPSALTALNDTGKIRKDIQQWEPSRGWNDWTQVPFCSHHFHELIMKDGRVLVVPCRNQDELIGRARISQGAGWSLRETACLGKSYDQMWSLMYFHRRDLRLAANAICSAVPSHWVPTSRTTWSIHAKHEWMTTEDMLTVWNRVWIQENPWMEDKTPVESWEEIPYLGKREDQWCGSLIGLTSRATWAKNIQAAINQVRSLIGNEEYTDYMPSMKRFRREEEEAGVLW

SMILES: C[C@H]1CN([C@@H](C)CO)S(=O)(=O)c2ccc(C#Cc3ccncc3)cc2O[C@H]1CN(C)C(=O)C1CCCCC1
AC50 [2]: 52.3 µM (active)
AC50 [3]: 12.9 µM (active)
AC50 (Paired box protein Pax-8): 2.68 µM (active)

SMILES: CC(C)N1C(=O)CC2(CC[N+](C)(CCOC(=O)C(O)(c3ccccc3)c3ccccc3)CC2)C1=O (configuration not stated)
IC50 [1]: 6.22 µM (active)

SMILES: C[C@@H]1CCCCO[C@H](CN(C)Cc2ccccc2)[C@@H](C)CN([C@H](C)CO)C(=O)c2cc(NC(=O)c3ccccc3)ccc2O1
AC50 [4]: 31.2 µM (active)
AC50 [5]: > 70 µM (inactive)

SMILES: CC(=O)Nc1nonc1-n1nnc(C(=O)NCc2ccccc2)c1C
EC50 [6]: > 20 µM (not active)
EC50 [7]: > 20 µM (not active)

SMILES: CN1CCC2(CC1)Nc1nc(SCc3ccc(Cl)cc3)nn1C1=C2CN(C)CC1
EC50 [6]: > 20 µM (not active)
EC50 [7]: > 20 µM (not active)
EC50 [8]: > 53 µM (inactive)
IC50 [9]: > 47.1 µM (inactive)

SMILES: COc1ccc(NC(=O)N2CCC3(CC2)CN(C(=O)C2CCC2)[C@H](CO)c2c3c3ccc(OC)cc3n2C)cc1
AC50 [10]: 0.0417 µM (active)
AC50 [11]: 0.969 µM (active)
AC50 [12]: 0.0967 µM (active)
AC50 [13]: 0.0845 µM (active)

SMILES: Cc1ccc2nc(Cl)c(C3CC(c4cccs4)=NN3C(=O)CCCC(=O)O)cc2c1 (configuration not stated)
IC50 [1]: 11.1 µM (active)

SMILES: Cc1cc(OCCCn2ccnc2)cc(C)c1Cl
EC50 [16]: 0.852 µM (active)
EC50 [14]: 5.31 µM (active)
EC50 [17]: > 60 µM (not active)

SMILES: CC(C)N1CCC2(CC1)N=C(c1ccc3c(c1)OCO3)CC(c1cc(Cl)ccc1O)N2 (configuration not stated)
EC50 [6]: 3.54 µM (active)
EC50 [7]: 4.25 µM (active)

SMILES: CCCc1c(O)nc(SCCN(CC)CC)nc1O
EC50 [14]: 1.68 µM (active)

SMILES: C[C@@H]1CN([C@@H](C)CO)S(=O)(=O)c2ccc(C#CC3CCCC3)cc2O[C@H]1CN(C)C(=O)Cc1ccncc1
AC50 [10]: 2.98 µM (active)
AC50 [11]: 1.16 µM (active)
AC50 [12]: 0.722 µM (active)
AC50 [13]: 1.72 µM (active)

Further lines, results first:

IC50 [1]: 7.02 µM (active)
SMILES: Cc1cc(C(=O)N/N=C/C=C/c2ccc(Br)cc2)[nH]n1

IC50 [1]: 6.05 µM (active)
SMILES: CCOC(=O)N(O)c1ccc(C=Cc2ccccc2)cc1

IC50 (Prothrombin): 0.986 µM (active)
AC50 (Cytochrome P450 2C19): 31.6 µM (inconclusive)
SMILES: CCCC(=O)n1nc(-c2cccnc2)nc1N

IC50 (Prothrombin): > 50 µM (not active)
SMILES: Cc1cc2ncn(S(=O)(=O)N3CCOCC3)c2cc1C

IC50 (Prothrombin): 0.711 µM (active)
SMILES: O=C(c1cccs1)n1nc(-c2cccnc2)nc1NCc1ccco1

AC50 (Cytochrome P450 2C9): inconclusive
AC50 (Cytochrome P450 3A4): 15.8 µM (inconclusive)
SMILES: COc1ccc(-c2nc3cnc(N4CCNCC4)nc3n(Cc3ccc(F)cc3)c2=O)cc1

IC50 (Genome polyprotein): 51.7 µM (active)
IC50 [1]: 4.28 µM (active)
SMILES: CCOc1cc(/C=N/NC2=NC(=O)C(CC(=O)O)S2)ccc1OCc1ccccc1Cl (configuration not stated)

AC50 (Cytochrome P450 2C9): inconclusive
SMILES: CN(C)c1oc(-c2ccccc2)nc1C#N

IC50 (Prothrombin): > 50 µM (not active)
SMILES: N/C(=N\S(=O)(=O)c1ccccc1)c1ccc([N+](=O)[O-])cc1

AC50 (Cytochrome P450 2C9): inconclusive
AC50 (Cytochrome P450 2C19): 0.282 µM (inconclusive)
SMILES: O=C(NCCc1cccs1)C1CC(c2c(Cl)cccc2Cl)=NO1 (configuration not stated)

EC50 [14]: 3.35 µM (active)
SMILES: Cc1cc(Br)ccc1OCCn1ccnc1

EC50 [14]: 1.33 µM (active)
SMILES: CCCN(CCC(=O)Nc1cc(OC)cc(OC)c1)CC1CC1

IC50 (Prothrombin): > 50 µM (not active)
SMILES: Cc1ccc(S(=O)(=O)NC(=O)N2CCC(C)CC2)cc1

EC50 [14]: 4.73 µM (active)
EC50 [15]: 5.31 µM (active)
SMILES: O=C(NCc1ccccc1)C1=C[C@H](c2ccc3c(c2)OCO3)C[C@H](OCc2ccc(CO)cc2)O1

AC50 (Cytochrome P450 2C9): inconclusive
SMILES: NS(=O)(=O)c1cc2c(cc1Cl)N[C@@H](CC1CCCC1)NS2(=O)=O
